Experimental findings from patent publication US9636345B2, “Benzimidazole derivatives useful TRPM8 channel modulators” (Janssen Pharmaceutica NV, priority 2009, dated 2017) are described below.

This assay concerns the target T1, canine TRPM8 (Canis lupus familiaris, UniProt Q1A7N1).
T1 construct: expressed in transfected cells
The assay can be described thus: In vitro canine TRPM8 functional assay (icilin-induced intracellular Ca2+ increase, FLIPR/FDSS). Format: cell-based. The settings on record: for inhibition at 0.2 µM / % Inh @ 0.2 μM: 0.2 μM compound, HEK293 canine TRPM8; for % Inh @ 1 μM / inhibition at 1 µM: 1 μM compound, samples diluted from 10 mM stock with 100% DMSO; for IC50: read-out: IC50. On the procedure: The functional activity of representative compounds of the formula (I) of the present invention was quantified by measuring changes in intracellular calcium concentration using a Ca^2+-sensitive fluorescent dye. The changes in fluorescent signal were monitored by a fluorescence plate reader, either a FLIPR™ (Molecular Devices) or FDSS (Hamamatsu).
HEK293 cells stably expressing canine TRPM8 were routinely grown as monolayers in Dulbecco's minimum essential medium supplemented with 10% FBS, 2 mM L-glutamine, 100 units/mL penicillin, 100 ug/mL streptomycin and 400 μg/mL G418. Cells were maintained in 5% CO2 at 37° C. At 24 hr prior to assay, cells were seeded in black wall, clear-base poly-D-lysine coated 384-well plates (BD Biosciences, N.J., USA) at a density of 5,000 cells per well in culture medium and grown overnight in 5% CO2 at 37° C. On assay day, growth media was removed, and cells were loaded with Calcium 3 Dye (Molecular Devices) for 35 min at 37° C., under 5% CO2 and then incubated for 25 min at room temperature and atmosphere. Subsequently, cells were tested for agonist-induced increases in intracellular Ca^2+ levels using FLIPR™ or FDSS. Cells were treated with compounds of the formula (I) at varying concentrations and intracellular Ca^2+ was measured for 5 min prior to the addition of icilin to all wells to achieve a final concentration that produces approximately an 80% maximal response.
Basal FI was subtracted prior to normalizing data to percent of maximal response. Curves were generated using the average of quadruplicate wells for each data point using nonlinear regression of either sigmoidal dose response or sigmoidal dose response (variable slope). Finally, the EC50 and IC50 values were calculated with the best-fit curve determined by GraphPad Prism
Test samples were prepared by diluting a 10 mM stock solution of test compound with 100% DMSO prior to addition to assay buffer.

Setting [1] is: re-test, samples diluted from 10 mM stock with 100% DMSO before addition to assay buffer, Table 7.
[2] abbreviates: HEK293 cells stably expressing canine TRPM8, icilin at ~80% maximal response, Table 6.

Molecules are shown by their SMILES. Where two headings read alike, the source gives them in different places.

T1 sequence (Q1A7N1 1-1104): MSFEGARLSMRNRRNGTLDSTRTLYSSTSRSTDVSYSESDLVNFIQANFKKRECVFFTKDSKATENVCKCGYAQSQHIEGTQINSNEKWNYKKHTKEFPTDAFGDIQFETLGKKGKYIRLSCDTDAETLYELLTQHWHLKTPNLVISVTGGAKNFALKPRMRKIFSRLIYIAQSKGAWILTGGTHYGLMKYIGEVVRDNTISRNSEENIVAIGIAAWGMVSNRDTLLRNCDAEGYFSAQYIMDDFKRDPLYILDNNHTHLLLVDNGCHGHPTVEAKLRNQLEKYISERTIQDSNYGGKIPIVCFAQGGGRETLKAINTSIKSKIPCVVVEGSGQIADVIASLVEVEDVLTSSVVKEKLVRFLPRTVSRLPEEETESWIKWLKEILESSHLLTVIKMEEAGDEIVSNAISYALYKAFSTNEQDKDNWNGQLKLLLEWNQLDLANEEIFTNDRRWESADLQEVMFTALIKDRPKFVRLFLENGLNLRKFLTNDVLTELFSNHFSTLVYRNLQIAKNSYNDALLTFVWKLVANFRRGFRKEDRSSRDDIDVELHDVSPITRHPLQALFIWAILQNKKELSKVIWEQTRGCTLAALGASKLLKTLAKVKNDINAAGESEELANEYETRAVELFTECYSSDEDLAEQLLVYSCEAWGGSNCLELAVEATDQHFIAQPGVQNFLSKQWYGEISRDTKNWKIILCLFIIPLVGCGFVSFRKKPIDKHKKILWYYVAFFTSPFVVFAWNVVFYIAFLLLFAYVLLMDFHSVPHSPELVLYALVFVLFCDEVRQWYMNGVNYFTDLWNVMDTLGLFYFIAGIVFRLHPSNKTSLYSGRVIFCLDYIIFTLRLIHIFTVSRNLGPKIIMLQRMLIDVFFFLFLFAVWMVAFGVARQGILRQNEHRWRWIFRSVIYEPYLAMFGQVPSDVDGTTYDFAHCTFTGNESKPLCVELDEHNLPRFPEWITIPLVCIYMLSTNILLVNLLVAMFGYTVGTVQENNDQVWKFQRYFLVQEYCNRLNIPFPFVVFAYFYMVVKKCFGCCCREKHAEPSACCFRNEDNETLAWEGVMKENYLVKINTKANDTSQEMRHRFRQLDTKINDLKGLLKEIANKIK

In turn, `CCn1/c(=N/S(=O)(=O)c2ccccc2)n(Cc2ccc(C(F)(F)F)cc2)c2cc(F)ccc21` [Compound 39, N-[1-Ethyl-5-fluoro-3-(4-trifluoromethyl-benzyl)-1,3-dihydro-benzimidazol-2-ylidene]-benzenesulfonamide] yielded an inhibition at 0.2 µM (Table 6) of 26%. With `O=S(=O)(N=c1n(Cc2ccc(OC(F)(F)F)cc2)c2ccccc2n1CC1CC1)c1ccccc1` [Compound 48], the “% Inh @ 0.2 μM” value (Table 6) amounted to 67%.

Consider `Cn1c(=NS(=O)(=O)c2ccc(F)cc2)n(Cc2ccc(C(F)(F)F)c(F)c2)c2ccccc21` [Compound 24], for which, for the setting “Table 6”, the “% Inh @ 0.2 μM” value was 3%. Also, the “% Inh @ 1 μM” value (re-test, Table 7) is given as 85%. Moreover, under setting [1], the concentration for half-maximal inhibition (IC50) was determined as 379 nM. As for `Cn1c(=NS(=O)(=O)c2ccccc2)n(Cc2ccc(C(F)(F)F)cc2)c2cc(C(F)(F)F)ccc21` [Compound 29], for the setting “Table 6”, the “% Inh @ 0.2 μM” value stood at 19%. For the compound `Cn1c(=NS(=O)(=O)c2ccccc2)n(Cc2ccc(C(F)(F)F)c(F)c2)c2cc(F)ccc21` [Compound 41], the “% Inh @ 0.2 μM” value (Table 6) stood at 6%. Besides, the “% Inh @ 1 μM” value (re-test, Table 7) was 79%. For `Cn1/c(=N/S(=O)(=O)c2ccccc2)n(Cc2cccc(C(F)(F)F)c2)c2ccccc21` [Compound 4, N-[1-Methyl-3-(3-trifluoromethyl-benzyl)-1,3-dihydro-benzimidazol-2-ylidene]-benzenesulfonamide], 0.2 µM produced 42% inhibition (Table 6). For `Cn1c(=NS(=O)(=O)c2ccccc2)n(Cc2ccc(F)c(C(F)(F)F)c2)c2ccccc21` [Compound 1], under “Table 6”, the “% Inh @ 0.2 μM” value is recorded as 40%. Consider `Cn1c(=NS(=O)(=O)c2ccccc2)n(Cc2ccc(F)c(Cl)c2)c2ccccc21` [Compound 11], for which the “% Inh @ 0.2 μM” value (Table 6) was found to be 38%. `CCn1c(=NS(=O)(=O)c2ccccc2)n(Cc2ccc(C(F)(F)F)c(F)c2)c2cc(F)ccc21` [Compound 33]: where the note is “Table 6”, the “% Inh @ 0.2 μM” value is reported as 70%. In the case of `Cn1c(=NS(=O)(=O)c2ccccc2)n(Cc2ccc(F)cc2)c2ccccc21` [Compound 8], the “% Inh @ 0.2 μM” value (Table 6) worked out at 20%. For the compound `O=S(=O)(/N=c1\n(Cc2ccc(C(F)(F)F)c(F)c2)c2ccccc2n1CC1CC1)c1ccccc1` [Compound 50, N-[1-Cyclopropylmethyl-3-(3-fluoro-4-trifluoromethyl-benzyl)-1,3-dihydro-benzimidazol-2-ylidene]-benzenesulfonamide], at 0.2 µM the inhibition (Table 6) was 94%. For the same compound, the IC50 under setting [2] amounted to 86 nM.

Take `Cn1c(=NS(=O)(=O)c2ccc(C(F)(F)F)cc2)n(Cc2ccc(C(F)(F)F)cc2)c2ccccc21` [Compound 21]: the inhibition at 0.2 µM (Table 6) was 8%. This compound also yielded an inhibition at 1 µM (re-test, Table 7) of 59%. Also, under setting [1], the 50% inhibitory concentration (IC50) came out at 588 nM. `Cn1c(=NS(=O)(=O)c2ccc(C(F)(F)F)cc2)n(Cc2ccc(OC(F)(F)F)cc2)c2ccccc21` [Compound 18] displayed an inhibition at 0.2 µM (Table 6) of 1%. In addition, testing at 1 µM (re-test, Table 7) gave an inhibition of 57%. For the same compound, the half-inhibitory concentration (IC50) under setting [1] turned out to be 635 nM. Take `Cn1c(=NS(=O)(=O)c2ccccc2)n(Cc2ccc(OC(F)(F)F)cc2)c2ccc(C(F)(F)F)cc21` [Compound 58]: for the setting “Table 6”, the “% Inh @ 0.2 μM” value came to 25%.

Consider `Cn1c(=NS(=O)(=O)c2ccccc2)n(Cc2ccc(OC(F)(F)F)cc2)c2cc(C(F)(F)F)ccc21` [Compound 30], for which the “% Inh @ 0.2 μM” value (Table 6) turned out to be 17%. For `CC(C)Cn1c(=NS(=O)(=O)c2ccccc2)n(Cc2ccc(C(F)(F)F)cc2)c2ccccc21` [Compound 27], the “% Inh @ 0.2 μM” value (Table 6) turned out to be 71%. Also, the concentration for half-maximal inhibition (IC50) under setting [2] was 43 nM. As for `Cc1ccc2c(c1)n(C)c(=NS(=O)(=O)c1ccccc1)n2Cc1ccc(C(F)(F)F)cc1` [Compound 56], where the note is “Table 6”, the “% Inh @ 0.2 μM” value was determined as 1%. For the same compound, for the setting “re-test, Table 7”, the “% Inh @ 1 μM” value amounted to 40%. As to `CCn1c(=NS(=O)(=O)c2ccccc2)n(Cc2ccc(C(F)(F)F)c(F)c2)c2ccccc21` [Compound 25], the “% Inh @ 0.2 μM” value (Table 6) came out at 62%. Consider `Cn1c(=NS(=O)(=O)c2ccc(Cl)cc2)n(Cc2ccc(C(F)(F)F)cc2)c2ccccc21` [Compound 19], for which, where the note is “Table 6”, the “% Inh @ 0.2 μM” value was found to be 13%. As for `CC(C)n1c(=NS(=O)(=O)c2ccccc2)n(Cc2ccc(OC(F)(F)F)cc2)c2cc(Cl)ccc21` [Compound 45], the “% Inh @ 0.2 μM” value (Table 6) is given as 66%.
